test system: HIV; assay: MT4 Assay (anti-HIV activity); format: cell-based; conditions: Human immunodeficiency virus 1, 96 h, read-out: HIV MT4 Assay IC50, HTLV-1 transformed cell line MT-4, cell titer glo, 10 point dose response curve
Procedure, shortened: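 IC50 values were fitted to 10-point dose-response series (3-4-fold dilutions, range >1000-fold), normalized to no-compound control. CellTiter-Glo read-out was taken after 96 hours in HTLV-1-transformed MT-4 cells. Cytotoxicity was measured in parallel under identical conditions.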

| Structure (SMILES) | IC50 [nM] |
| --- | --- |
| Cn1c(C(OC(C)(C)C)C(=O)O)c(-c2cnc3c(c2)CCCO3)c2ccccc2c1=O (stereo not drawn) [Example 118, 2-(tert-butoxy)-2-(2-methyl-1-oxo-4-{2H,3H,4H-pyrano[2,3-b]pyridin-6-yl}-1,2-dihydroisoquinolin-3-yl)acetic acid] | 41600 |
| Cc1c(-c2c(C(OC(C)(C)C)C(=O)O)n(C)c(=O)c3cc(OCCN4CCOCC4)ccc23)ccc2c1CCCO2 (stereo not drawn) [Example 119, 2-(tert-butoxy)-2-[2-methyl-4-(5-methyl-3,4-dihydro-2H-1-benzopyran-6-yl)-7-[2-(morpholin-4-yl)ethoxy]-1-oxo-1,2-dihydroisoquinolin-3-yl]acetic acid] | 2130 |
| COc1cc2c(=O)n(C)c(C(OC(C)(C)C)C(=O)O)c(-c3ccc4c(c3C)CCCO4)c2cc1C (stereo not drawn) [Example 120, 2-(tert-butoxy)-2-[7-methoxy-2,6-dimethyl-4-(5-methyl-3,4-dihydro-2H-1-benzopyran-6-yl)-1-oxo-1,2-dihydroisoquinolin-3-yl]acetic acid] | 230 |
| CCc1c(-c2c(C(OC(C)(C)C)C(=O)O)n(C)c(=O)c3ccccc23)ccc2c1CCCO2 (stereo not drawn) [Example 121, 2-(tert-butoxy)-2-[4-(5-ethyl-3,4-dihydro-2H-1-benzopyran-6-yl)-2-methyl-1-oxo-1,2-dihydroisoquinolin-3-yl]acetic acid] | 940 |
| Cc1c(-c2c(C(OC(C)(C)C)C(=O)O)n(C)c(=O)c3cc(OCC(=O)O)ccc23)ccc2c1CCCO2 (stereo not drawn) [Example 122, 2-({3-[(tert-butoxy)(carboxy)methyl]-2-methyl-4-(5-methyl-3,4-dihydro-2H-1-benzopyran-6-yl)-1-oxo-1,2-dihydroisoquinolin-7-yl}oxy)acetic acid] | 50000 |
| Cc1c(-c2c(C(OC(C)(C)C)C(=O)O)n(C)c(=O)c3cc(OS(=O)(=O)N(C)C)ccc23)ccc2c1CCCO2 (stereo not drawn) [Example 123, 2-(tert-butoxy)-2-{7-[(dimethylsulfamoyl)oxy]-2-methyl-4-(5-methyl-3,4-dihydro-2H-1-benzopyran-6-yl)-1-oxo-1,2-dihydroisoquinolin-3-yl}acetic acid] | 1220 |
| Cc1ccc2c(-c3cc(F)c4c(c3C)CCCO4)c(C(OC(C)(C)C)C(=O)O)n(C)c(=O)c2c1 (stereo not drawn) [Example 124, 2-(tert-butoxy)-2-[4-(8-fluoro-5-methyl-3,4-dihydro-2H-1-benzopyran-6-yl)-2,7-dimethyl-1-oxo-1,2-dihydroisoquinolin-3-yl]acetic acid] | 130 |
| COc1ccc2c(-c3cc(F)c4c(c3C)CCCO4)c(C(OC(C)(C)C)C(=O)O)n(C)c(=O)c2c1 (stereo not drawn) [Example 125, 2-(tert-butoxy)-2-[4-(8-fluoro-5-methyl-3,4-dihydro-2H-1-benzopyran-6-yl)-7-methoxy-2-methyl-1-oxo-1,2-dihydroisoquinolin-3-yl]acetic acid] | 320 |
| COc1ccc2c(-c3ccc4c(c3C)CCCO4)c(C(OC(C)(C)C)C(=O)O)n(C)c(=O)c2c1F (stereo not drawn) [Example 126, 2-(tert-butoxy)-2-[8-fluoro-7-methoxy-2-methyl-4-(5-methyl-3,4-dihydro-2H-1-benzopyran-6-yl)-1-oxo-1,2-dihydroisoquinolin-3-yl]acetic acid] | 360 |
| Cc1c(-c2c(C(OC(C)(C)C)C(=O)O)n(C)c(=O)c3cc(C(F)(F)F)ccc23)ccc2c1CCCO2 (stereo not drawn) [Example 127, 2-(tert-butoxy)-2-[2-methyl-4-(5-methyl-3,4-dihydro-2H-1-benzopyran-6-yl)-1-oxo-7-(trifluoromethyl)-1,2-dihydroisoquinolin-3-yl]acetic acid] | 1140 |
| Cc1c(-c2c(C(OC(C)(C)C)C(=O)O)n(C)c(=O)c3cc(OCc4ccc(S(C)(=O)=O)cc4)ccc23)ccc2c1CCCO2 (stereo not drawn) [Example 128, 2-(tert-butoxy)-2-{7-[(4-methanesulfonylphenyl)-methoxy]-2-methyl-4-(5-methyl-3,4-dihydro-2H-1-benzopyran-6-yl)-1-oxo-1,2-dihydroisoquinolin-3-yl}acetic acid] | 380 |
| Cc1c(-c2c(C(OC(C)(C)C)C(=O)O)n(C)c(=O)c3cc(OCc4ccccn4)ccc23)ccc2c1CCCO2 (stereo not drawn) [Example 129, 2-(tert-butoxy)-2-[2-methyl-4-(5-methyl-3,4-dihydro-2H-1-benzopyran-6-yl)-1-oxo-7-(pyridin-2-ylmethoxy)-1,2-dihydroisoquinolin-3-yl]acetic acid] | 200 |
| COc1cc2c(=O)n(C)c(C(OC(C)(C)C)C(=O)O)c(-c3ccc4c(c3C)CCCO4)c2cc1Cl (stereo not drawn) [Example 130, 2-(tert-butoxy)-2-[6-chloro-7-methoxy-2-methyl-4-(5-methyl-3,4-dihydro-2H-1-benzopyran-6-yl)-1-oxo-1,2-dihydroisoquinolin-3-yl]acetic acid] | 3750 |
| Cc1ccc2c(-c3cc(F)c4c(c3C)CCCO4)c([C@H](OC(C)(C)C)C(=O)O)n(C)c(=O)c2c1 [Example 131, (2S)-2-(tert-butoxy)-2-[4-(8-fluoro-5-methyl-3,4-dihydro-2H-1-benzopyran-6-yl)-2,7-dimethyl-1-oxo-1,2-dihydroisoquinolin-3-yl]acetic acid] | 20 |
| Cc1c(-c2c(C(OC(C)(C)C)C(=O)O)n(C)c(=O)c3cc(OCc4ccc(C(F)(F)F)cc4)ccc23)ccc2c1CCCO2 (stereo not drawn) [Example 132, 2-(tert-butoxy)-2-[2-methyl-4-(5-methyl-3,4-dihydro-2H-1-benzopyran-6-yl)-1-oxo-7-{[4-(trifluoromethyl)phenyl]-methoxy}-1,2-dihydroisoquinolin-3-yl]acetic acid] | 310 |
| Cc1nc(COc2ccc3c(-c4cc(F)c5c(c4C)CCCO5)c(C(OC(C)(C)C)C(=O)O)n(C)c(=O)c3c2)c(C)o1 (stereo not drawn) [Example 133, 2-(tert-butoxy)-2-{7-[(dimethyl-1,3-oxazol-4-yl)methoxy]-4-(8-fluoro-5-methyl-3,4-dihydro-2H-1-benzopyran-6-yl)-2-methyl-1-oxo-1,2-dihydroisoquinolin-3-yl}acetic acid] | 930 |
| Cc1c(-c2c(C(OC(C)(C)C)C(=O)O)n(C)c(=O)c3cc(OCc4ccc(F)cc4F)ccc23)ccc2c1CCCO2 (stereo not drawn) [Example 134, 2-(tert-butoxy)-2-{7-[(2,4-difluorophenyl)methoxy]-2-methyl-4-(5-methyl-3,4-dihydro-2H-1-benzopyran-6-yl)-1-oxo-1,2-dihydroisoquinolin-3-yl}acetic acid] | 70 |
| Cc1c(-c2c(C(OC(C)(C)C)C(=O)O)n(C)c(=O)c3cc(OC(C)C)ccc23)ccc2c1CCCO2 (stereo not drawn) [Example 135, 2-(tert-butoxy)-2-[2-methyl-4-(5-methyl-3,4-dihydro-2H-1-benzopyran-6-yl)-1-oxo-7-(propan-2-yloxy)-1,2-dihydroisoquinolin-3-yl]acetic acid] | 140 |
| Cc1c(-c2c(C(OC(C)(C)C)C(=O)O)n(C)c(=O)c3cc(OCc4ccc(Cl)cc4)ccc23)ccc2c1CCCO2 (stereo not drawn) [Example 136, 2-(tert-butoxy)-2-{7-[(4-chlorophenyl)methoxy]-2-methyl-4-(5-methyl-3,4-dihydro-2H-1-benzopyran-6-yl)-1-oxo-1,2-dihydroisoquinolin-3-yl}acetic acid] | 100 |
| Cc1c(-c2c(C(OC(C)(C)C)C(=O)O)n(C)c(=O)c3cc(OCc4cncnc4)ccc23)ccc2c1CCCO2 (stereo not drawn) [Example 137, 2-(tert-butoxy)-2-[2-methyl-4-(5-methyl-3,4-dihydro-2H-1-benzopyran-6-yl)-1-oxo-7-(pyrimidin-5-ylmethoxy)-1,2-dihydroisoquinolin-3-yl]acetic acid] | 1030 |
| Cc1c(-c2c(C(OC(C)(C)C)C(=O)O)n(C)c(=O)c3cc(OCc4ccc(F)c(F)c4)ccc23)ccc2c1CCCO2 (stereo not drawn) [Example 138, 2-(tert-butoxy)-2-{7-[(3,4-difluorophenyl)methoxy]-2-methyl-4-(5-methyl-3,4-dihydro-2H-1-benzopyran-6-yl)-1-oxo-1,2-dihydroisoquinolin-3-yl}acetic acid] | 70 |
| Cc1c(-c2c([C@H](OC(C)(C)C)C(=O)O)n(C)c(=O)c3cc(F)ccc23)cc(F)c2c1CCCO2 [Example 139, (2S)-2-(tert-butoxy)-2-[7-fluoro-4-(8-fluoro-5-methyl-3,4-dihydro-2H-1-benzopyran-6-yl)-2-methyl-1-oxo-1,2-dihydroisoquinolin-3-yl]acetic acid] | 30 |
| Cc1c(-c2c([C@H](OC(C)(C)C)C(=O)O)n(C)c(=O)c3ccccc23)ccc2c1CCCO2 [Example 140, (2S)-2-(tert-butoxy)-2-[2-methyl-4-(5-methyl-3,4-dihydro-2H-1-benzopyran-6-yl)-1-oxo-1,2-dihydroisoquinolin-3-yl]acetic acid] | 110 |
| Cc1c(-c2c([C@H](OC(C)(C)C)C(=O)O)n(C)c(=O)c3cc(OCCF)ccc23)ccc2c1CCCO2 [Example 141, (2S)-2-(tert-butoxy)-2-[7-(2-fluoroethoxy)-2-methyl-4-(5-methyl-3,4-dihydro-2H-1-benzopyran-6-yl)-1-oxo-1,2-dihydroisoquinolin-3-yl]acetic acid] | 30 |
| Cc1c(-c2c(C(OC(C)(C)C)C(=O)O)n(C)c(=O)c3cc(OCc4cccs4)ccc23)ccc2c1CCCO2 (stereo not drawn) [Example 142, 2-(tert-butoxy)-2-[2-methyl-4-(5-methyl-3,4-dihydro-2H-1-benzopyran-6-yl)-1-oxo-7-(thiophen-2-ylmethoxy)-1,2-dihydroisoquinolin-3-yl]acetic acid] | 30 |
| Cc1c(-c2c([C@H](OC(C)(C)C)C(=O)O)n(C)c(=O)c3cc(OCc4ccccn4)ccc23)cc(F)c2c1CCCO2 [Example 143, (2S)-2-(tert-butoxy)-2-[4-(8-fluoro-5-methyl-3,4-dihydro-2H-1-benzopyran-6-yl)-2-methyl-1-oxo-7-(pyridin-2-ylmethoxy)-1,2-dihydroisoquinolin-3-yl]acetic acid] | 30 |
| Cc1c(-c2c([C@H](OC(C)(C)C)C(=O)O)n(C)c(=O)c3cc(OCc4ccccn4)ccc23)ccc2c1CCCO2 [Example 144, (2S)-2-(tert-butoxy)-2-[2-methyl-4-(5-methyl-3,4-dihydro-2H-1-benzopyran-6-yl)-1-oxo-7-(pyridin-2-ylmethoxy)-1,2-dihydroisoquinolin-3-yl]acetic acid] | 40 |
